Results from ChEMBL document CHEMBL6096689, “Structure-Guided Development of ClpP Agonists with Potent Therapeutic Activities against Staphylococcus aureus Infection” (J Med Chem, 2025).
In brackets after ≈: the same amount, converted by molar mass.

Key:
Staphylococcus aureus [1] = experiment: microbe, parasite or virus in culture; format: functional; conditions: Newman, time 18 hrs
Description: Antibacterial activity against Staphylococcus aureus Newman assessed as inhibition of visible growth of bacteria incubated for 18 hrs by absorbance based analysis

[2] = molecular target: T1, ATP-dependent Clp protease proteolytic subunit (Staphylococcus aureus (strain NCTC 8325), UniProt Q2G036); experiment: Agonist activity at Staphylococcus aureus ClpP extracted from Escherichia coli BL21 (DE3) cells using alpha-casein as substrate assessed as substrate hydrolysis preincubated for 15 mins followed by substrate addition and measured after 2 hrs by SDS-PAGE analysis
T1 sequence (Q2G036 whole entry): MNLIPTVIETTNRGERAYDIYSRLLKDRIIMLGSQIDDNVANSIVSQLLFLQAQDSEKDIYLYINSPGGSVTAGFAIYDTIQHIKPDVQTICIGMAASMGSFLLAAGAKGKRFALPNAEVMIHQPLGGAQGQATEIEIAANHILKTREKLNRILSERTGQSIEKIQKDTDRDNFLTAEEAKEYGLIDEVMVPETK

Staphylococcus aureus [3] = experiment: microbe, parasite or virus in culture; format: functional; conditions: time 18 hrs
Description: Antibacterial activity against multidrug-resistant Staphylococcus aureus clinical isolate XJ025 assessed as inhibition of visible growth of bacteria incubated for 18 hrs by absorbance based analysis

Staphylococcus aureus [4] = experiment: microbe, parasite or virus in culture; format: functional; conditions: NRS-1, time 18 hrs
Description: Antibacterial activity against methicillin-resistant Staphylococcus aureus NRS-1 assessed as inhibition of visible growth of bacteria incubated for 18 hrs by absorbance based analysis

Staphylococcus aureus [5] = experiment: microbe, parasite or virus in culture; format: functional; conditions: time 18 hrs; remark: listed apart in the source
Description: Antibacterial activity against multidrug-resistant Staphylococcus aureus clinical isolate XJ009 assessed as inhibition of visible growth of bacteria incubated for 18 hrs by absorbance based analysis

Staphylococcus aureus [6] = experiment: microbe, parasite or virus in culture; format: functional; conditions: USA300, time 18 hrs
Description: Antibacterial activity against methicillin-resistant Staphylococcus aureus USA300 assessed as inhibition of visible growth of bacteria incubated for 18 hrs by absorbance based analysis

Staphylococcus aureus [7] = experiment: microbe, parasite or virus in culture; format: functional; conditions: NRS-271, time 18 hrs
Description: Antibacterial activity against methicillin-resistant Staphylococcus aureus NRS-271 assessed as inhibition of visible growth of bacteria incubated for 18 hrs by absorbance based analysis

Staphylococcus aureus [8] = experiment: microbe, parasite or virus in culture; format: functional; conditions: time 18 hrs; remark: listed apart in the source
Description: Antibacterial activity against multidrug-resistant Staphylococcus aureus clinical isolate XJ049 assessed as inhibition of visible growth of bacteria incubated for 18 hrs by absorbance based analysis

Staphylococcus aureus [9] = experiment: microbe, parasite or virus in culture; format: functional; conditions: NRS-70, time 18 hrs
Description: Antibacterial activity against methicillin-resistant Staphylococcus aureus NRS-70 assessed as inhibition of visible growth of bacteria incubated for 18 hrs by absorbance based analysis

Staphylococcus aureus [10] = experiment: microbe, parasite or virus in culture; format: functional; conditions: NRS-108, time 18 hrs
Description: Antibacterial activity against methicillin-resistant Staphylococcus aureus NRS-108 assessed as inhibition of visible growth of bacteria incubated for 18 hrs by absorbance based analysis

Staphylococcus aureus [11] = experiment: microbe, parasite or virus in culture; format: functional; conditions: time 18 hrs; remark: listed apart in the source
Description: Antibacterial activity against multidrug-resistant Staphylococcus aureus clinical isolate XJ051 assessed as inhibition of visible growth of bacteria incubated for 18 hrs by absorbance based analysis

Staphylococcus aureus [12] = experiment: microbe, parasite or virus in culture; format: functional; conditions: time 18 hrs; remark: listed apart in the source
Description: Antibacterial activity against multidrug-resistant Staphylococcus aureus clinical isolate XJ052 assessed as inhibition of visible growth of bacteria incubated for 18 hrs by absorbance based analysis

| SMILES | MIC (Staphylococcus aureus [1]) [µg/mL] | EC50 [2] [µM] | other results |
| --- | --- | --- | --- |
| CC[C@H](C)[C@H]1C(=O)N(Cc2cccc3ccccc23)C[C@@H]2N(C(=O)NCc3ccccc3)CCC(=O)N12 | 4 (≈ 8.02 µM) | 0.9 |  |
| CC[C@H](C)[C@H]1C(=O)N(Cc2cc(Cl)cc(Cl)c2)C[C@@H]2N(C(=O)NCCCC(F)(F)F)CCC(=O)N12 | 16 (≈ 29.8 µM) | 0.78 |  |
| CC[C@H](C)[C@H]1C(=O)N(Cc2ccc(Cl)cc2Cl)C[C@@H]2N(C(=O)NCCCC(F)(F)F)CCC(=O)N12 | 32 (≈ 59.5 µM) | 1 |  |
| CN[C@@H]1[C@@H](O)[C@@H](O[C@@H]2[C@@H](O)[C@H](O[C@H]3O[C@H](CN)CC[C@H]3N)[C@@H](N)C[C@H]2N)OC[C@]1(C)O [GENTAMICIN C1A] | 0.5 (≈ 1.11 µM) |  | MIC (Staphylococcus aureus [3]): 128 µg/mL (≈ 285 µM); MIC (Staphylococcus aureus [4]): > 128 µg/mL; MIC (Staphylococcus aureus [5]): 64 µg/mL (≈ 142 µM); MIC (Staphylococcus aureus [6]): 1 µg/mL (≈ 2.22 µM); MIC (Staphylococcus aureus [7]): 0.5 µg/mL (≈ 1.11 µM); MIC (Staphylococcus aureus [8]): 128 µg/mL (≈ 285 µM); MIC (Staphylococcus aureus [9]): 0.5 µg/mL (≈ 1.11 µM); MIC (Staphylococcus aureus [10]): 0.25 µg/mL (≈ 0.556 µM); MIC (Staphylococcus aureus [11]): > 128 µg/mL; MIC (Staphylococcus aureus [12]): > 128 µg/mL |
| O=C1[C@H](Cc2ccc(O)cc2)N2C(=O)CCN(C(=O)NCc3ccccc3)[C@H]2CN1Cc1cccc2ccccc12 | 16 (≈ 29.2 µM) | 1.1 |  |
| CCn1cc(C(=O)O)c(=O)c2cc(F)c(N3CCNCC3)cc21 [NORFLOXACIN] | 0.25 (≈ 0.783 µM) |  | MIC (Staphylococcus aureus [3]): > 128 µg/mL; MIC (Staphylococcus aureus [4]): 64 µg/mL (≈ 200 µM); MIC (Staphylococcus aureus [5]): > 128 µg/mL; MIC (Staphylococcus aureus [6]): 16 µg/mL (≈ 50.1 µM); MIC (Staphylococcus aureus [7]): > 128 µg/mL; MIC (Staphylococcus aureus [8]): > 128 µg/mL; MIC (Staphylococcus aureus [9]): 1 µg/mL (≈ 3.13 µM); MIC (Staphylococcus aureus [10]): 32 µg/mL (≈ 100 µM); MIC (Staphylococcus aureus [11]): > 128 µg/mL; MIC (Staphylococcus aureus [12]): > 128 µg/mL |
| O=C1[C@H](CC2CCCC2)N2C(=O)CCN(C(=O)NCCCC(F)(F)F)[C@H]2CN1Cc1cccc2ccccc12 | 4 (≈ 7.34 µM) | 2.2 |  |
| CC[C@H](C)[C@H]1C(=O)N(Cc2cccc3ccccc23)C[C@@H]2N(C(=O)NCCCCCCl)CCC(=O)N12 | > 128 | > 40 |  |
| O=C1[C@H](CC2CCCCC2)N2C(=O)CCN(C(=O)NCCCC(F)(F)F)[C@H]2CN1Cc1cccc2ccccc12 | 2 (≈ 3.58 µM) | 1.6 |  |
| CC[C@H](C)[C@H]1C(=O)N(Cc2cccc3ccccc23)C[C@@H]2N(C(=O)NCCC(C)C)CCC(=O)N12 | 2 (≈ 4.18 µM) | 1.9 |  |
| CC[C@@H](C)[C@H]1C(=O)N(Cc2cccc3ccccc23)C[C@@H]2N(C(=O)NCc3ccc(Br)cc3)CCC(=O)N12 | 4 (≈ 6.93 µM) | 1.2 |  |
| CSCC[C@H]1C(=O)N(Cc2cccc3ccccc23)C[C@@H]2N(C(=O)NCc3ccccc3)CCC(=O)N21 | 8 (≈ 15.5 µM) | 3.1 |  |
| CC[C@H](C)[C@H]1C(=O)N(Cc2cccc3ccccc23)C[C@@H]2N(C(=O)NCCC3CC3)CCC(=O)N12 | 2 (≈ 4.2 µM) | 1.9 |  |
| CC[C@H](C)[C@H]1C(=O)N(Cc2cccc3ccccc23)C[C@@H]2N(C(=O)NCCC(=O)OC)CCC(=O)N12 | 128 (≈ 259 µM) | 17.3 |  |
| O=C1[C@H](CO)N2C(=O)CCN(C(=O)NCc3ccccc3)[C@H]2CN1Cc1cccc2ccccc12 | 64 (≈ 135 µM) | 4.5 |  |
| CC[C@H](C)[C@H]1C(=O)N(Cc2cccc3ccccc23)C[C@@H]2N(C(=O)NCC(C)(C)C)CCC(=O)N12 | 32 (≈ 66.9 µM) | 4.9 |  |
| CC[C@H](C)[C@H]1C(=O)N(Cc2cccc3ccccc23)C[C@@H]2N(C(=O)NCCC3CCOC3)CCC(=O)N12 (stereo partly drawn) | 128 (≈ 253 µM) | 6.9 |  |
| CC[C@H](C)[C@H]1C(=O)N(Cc2cccc3ccccc23)C[C@@H]2N(C(=O)NCCC(C)=O)CCC(=O)N12 | > 128 | 26.1 |  |
| CCCC(C)NC(=O)N1CCC(=O)N2[C@@H]([C@@H](C)CC)C(=O)N(Cc3cccc4ccccc34)C[C@H]12 (stereo partly drawn) | 8 (≈ 16.7 µM) | 5.2 |  |
| CCC(C)CNC(=O)N1CCC(=O)N2[C@@H]([C@@H](C)CC)C(=O)N(Cc3cccc4ccccc34)C[C@H]12 (stereo partly drawn) | 2 (≈ 4.18 µM) | 1.8 |  |
| CC(C)C[C@H]1C(=O)N(Cc2cccc3ccccc23)C[C@@H]2N(C(=O)NCc3ccccc3)CCC(=O)N21 | 16 (≈ 32.1 µM) | 1.2 |  |
| CC[C@H](C)[C@H]1C(=O)N(Cc2cccc3ccccc23)C[C@@H]2N(C(=O)NCCc3ccco3)CCC(=O)N12 | > 128 | 5.2 |  |
| CC[C@H](C)[C@H]1C(=O)N(Cc2cccc3ccccc23)C[C@@H]2N(C(=O)NCC(C)C)CCC(=O)N12 | 8 (≈ 17.2 µM) | 3.8 |  |
| C[C@H]1C(=O)N(Cc2cccc3ccccc23)C[C@@H]2N(C(=O)NCc3ccccc3)CCC(=O)N21 | 16 (≈ 35 µM) | 2.5 |  |
| CC1(C)S[C@@H]2[C@H](NC(=O)[C@H](N)c3ccccc3)C(=O)N2[C@H]1C(=O)O [AMPICILLIN] | 0.25 (≈ 0.715 µM) |  | MIC (Staphylococcus aureus [3]): 64 µg/mL (≈ 183 µM); MIC (Staphylococcus aureus [4]): 32 µg/mL (≈ 91.6 µM); MIC (Staphylococcus aureus [5]): 64 µg/mL (≈ 183 µM); MIC (Staphylococcus aureus [7]): 32 µg/mL (≈ 91.6 µM); MIC (Staphylococcus aureus [8]): 64 µg/mL (≈ 183 µM); MIC (Staphylococcus aureus [9]): 4 µg/mL (≈ 11.4 µM); MIC (Staphylococcus aureus [10]): 4 µg/mL (≈ 11.4 µM); MIC (Staphylococcus aureus [11]): 128 µg/mL (≈ 366 µM); MIC (Staphylococcus aureus [12]): 64 µg/mL (≈ 183 µM) |
| O=C1[C@H](Cc2ccccc2)N2C(=O)CCN(C(=O)NCc3ccccc3)[C@H]2CN1Cc1cccc2ccccc12 | 8 (≈ 15 µM) | 2.9 |  |

Second part, led by results:

| MIC (Staphylococcus aureus [1]) [µg/mL] | EC50 [2] [µM] | SMILES | other results |
| --- | --- | --- | --- |
| 2 (≈ 3.96 µM) | 1.6 | CC(C)[C@H]1C(=O)N(Cc2cccc3ccccc23)C[C@@H]2N(C(=O)NCCCC(F)(F)F)CCC(=O)N12 |  |
| 4 (≈ 8.02 µM) | 1.1 | CC[C@H](C)[C@H]1C(=O)N(Cc2cccc3ccccc23)C[C@@H]2N(C(=O)NCCCCCl)CCC(=O)N12 |  |
| 4 (≈ 7.74 µM) | 3.5 | O=C1[C@H](CC2CC2)N2C(=O)CCN(C(=O)NCCCC(F)(F)F)[C@H]2CN1Cc1cccc2ccccc12 |  |
| 0.5 (≈ 0.932 µM) | 1.01 | CC[C@H](C)[C@H]1C(=O)N(Cc2ccc(F)c3ccccc23)C[C@@H]2N(C(=O)NCCCC(F)(F)F)CCC(=O)N12 |  |
| 4 (≈ 7.71 µM) | 1.3 | CC(C)C[C@H]1C(=O)N(Cc2cccc3ccccc23)C[C@@H]2N(C(=O)NCCCC(F)(F)F)CCC(=O)N21 |  |
| 4 (≈ 7.99 µM) | 1.9 | C#CC[C@H]1C(=O)N(Cc2cccc3ccccc23)C[C@@H]2N(C(=O)NCCCC(F)(F)F)CCC(=O)N21 |  |
| 16 (≈ 35.5 µM) | 2.2 | CCCNC(=O)N1CCC(=O)N2[C@@H]([C@@H](C)CC)C(=O)N(Cc3cccc4ccccc34)C[C@H]12 |  |
| 1 (≈ 1.93 µM) | 0.72 | CC[C@H](C)[C@H]1C(=O)N(Cc2cccc3ccccc23)C[C@@H]2N(C(=O)NCCCC(F)(F)F)CCC(=O)N12 |  |
| 0.25 (≈ 0.469 µM) | 1.52 | CC[C@H](C)[C@H]1C(=O)N(Cc2ccc(C)c3ccccc23)C[C@@H]2N(C(=O)NCCCC(F)(F)F)CCC(=O)N12 |  |
| 2 (≈ 3.67 µM) | 1.5 | [N-]=[N+]=NCCC[C@H]1C(=O)N(Cc2cccc3ccccc23)C[C@@H]2N(C(=O)NCCCC(F)(F)F)CCC(=O)N21 |  |
| 4 (≈ 8.25 µM) | 1.3 | CC[C@H](C)[C@H]1C(=O)N(Cc2cccc3ccccc23)C[C@@H]2N(C(=O)NCCCCl)CCC(=O)N12 |  |
| 4 (≈ 6.69 µM) | 1.94 | CC[C@H](C)[C@H]1C(=O)N(Cc2ccc(Br)c3ccccc23)C[C@@H]2N(C(=O)NCCCC(F)(F)F)CCC(=O)N12 |  |
| 2 (≈ 4.3 µM) | 1.6 | CCCCNC(=O)N1CCC(=O)N2[C@@H]([C@@H](C)CC)C(=O)N(Cc3cccc4ccccc34)C[C@H]12 |  |
| 4 (≈ 7.54 µM) | 2 | O=C1[C@H](CC2CCC2)N2C(=O)CCN(C(=O)NCCCC(F)(F)F)[C@H]2CN1Cc1cccc2ccccc12 |  |
| 4 (≈ 7.96 µM) | 1.4 | C=CC[C@H]1C(=O)N(Cc2cccc3ccccc23)C[C@@H]2N(C(=O)NCCCC(F)(F)F)CCC(=O)N21 |  |
